# System: Human immunodeficiency virus 1
# Experiment: Activity against HTLV-III/LAV[…], was determined in vitro.
# Assay type: functional
# Conditions: read-out: ED50 (the source's name)
row,SMILES,EC50 [µM]
1,[N-]=[N+]=N[C@H]1C[C@H](n2cc(Br)c(=O)[nH]c2=O)O[C@@H]1CO,2.3
2,Cc1cn([C@H]2C[C@H](N=[N+]=[N-])[C@@H](CO)O2)c(=O)[nH]c1=O [ZIDOVUDINE],0.23

# System: Moloney murine leukemia virus
# Experiment: In vitro inhibitory activity against Moloney murine leukemia virus (M-MULV) replication, a mammalian T-lymphotropic retrovirus
# Assay type: functional
# Conditions: read-out: ED50 (the source's name)
row,SMILES,EC50 [µM]
1,Cc1cn([C@H]2C[C@H](O)[C@@H](CN=[N+]=[N-])O2)c(=O)[nH]c1=O,> 100
2,O=c1ccn([C@H]2CC[C@@H](CO)O2)c(=O)[nH]1,> 100
3,[N-]=[N+]=N[C@H]1C[C@H](n2cc(C(F)(F)F)c(=O)[nH]c2=O)O[C@@H]1CO,> 100
4,[N-]=[N+]=N[C@H]1C[C@H](n2cc(Br)c(=O)[nH]c2=O)O[C@@H]1CO,1.5
5,N[C@H]1C[C@H](n2cc(C(F)(F)F)c(=O)[nH]c2=O)O[C@@H]1CO,> 100
6,Cc1cn([C@H]2C[C@H](N=[N+]=[N-])[C@@H](CN=[N+]=[N-])O2)c(=O)[nH]c1=O,17
7,Cc1cn([C@H]2C[C@H](N=[N+]=[N-])[C@@H](CO)O2)c(=O)nc1N,> 100
8,[N-]=[N+]=N[C@H]1C[C@H](n2cc(F)c(N)nc2=O)O[C@@H]1CO,> 100
9,[N-]=[N+]=N[C@H]1C[C@H](n2ccc(N)nc2=O)O[C@@H]1CO,58
10,[N-]=[N+]=N[C@H]1C[C@H](n2cc(I)c(=O)[nH]c2=O)O[C@@H]1CO,3
11,Cc1cn([C@H]2C[C@H](N)[C@@H](CN)O2)c(=O)[nH]c1=O,> 100
12,[N-]=[N+]=N[C@H]1C[C@H](n2cc(F)c(=O)[nH]c2=O)O[C@@H]1CO,> 100
13,O=c1[nH]c(=O)n([C@H]2CC[C@@H](CO)O2)cc1/C=C/Br,> 100
14,O=c1[nH]c(=O)n([C@H]2CC[C@@H](CO)O2)cc1I,> 100
15,Nc1ccn([C@H]2C=C[C@@H](CO)O2)c(=O)n1,3.7
16,O=c1[nH]c(=O)n([C@H]2CC[C@@H](CO)O2)cc1Br,> 100
17,Cc1cn([C@H]2C[C@H](O)[C@@H](CN)O2)c(=O)[nH]c1=O,> 100
18,Cc1cn([C@H]2CC[C@@H](CO)O2)c(=O)[nH]c1=O,> 100
19,O=c1ccn([C@H]2C=C[C@@H](CO)O2)c(=O)[nH]1,> 100
20,Cc1cn([C@H]2C[C@H](N)[C@@H](CO)O2)c(=O)[nH]c1=O [3-AMINO- 3-DEOXYTHYMIDINE],42
21,[N-]=[N+]=N[C@H]1C[C@H](n2ccc(=O)[nH]c2=O)O[C@@H]1CO [NAVURIDINE],52
22,Cc1cn([C@H]2C=C[C@@H](CO)O2)c(=O)[nH]c1=O [STAVUDINE],2.5
23,Nc1ccn([C@H]2CC[C@@H](CO)O2)c(=O)n1 [ZALCITABINE],4
24,Cc1cn([C@H]2C[C@H](N=[N+]=[N-])[C@@H](CO)O2)c(=O)[nH]c1=O [ZIDOVUDINE],0.02

# System: Moloney murine leukemia virus
# Experiment: Compound was tested against Moloney murine leukemia virus (M-MULV) in 3T3 cells, at a concentration of 10 uM
# Assay type: functional
# Conditions: NIH3T3
row,SMILES,inhibition at 10 µM [%]
1,Cc1cn([C@H]2CC[C@@H](CO)O2)c(=O)[nH]c1=O,50

# Source: ChEMBL document CHEMBL1123685, “Synthesis and antiviral activity of various 3'-azido, 3'-amino, 2',3'-unsaturated, and 2',3'-dideoxy analogues of pyrimidine deoxyribonucleosides against retroviruses” (1987)
